In US10946019B2, “Nurr1:RXR activating compounds for simultaneous treatment of symptoms and pathology of Parkinson's disease” (priority 2015, dated 2021):

How the values were obtained:
[1] = target: Nurr1:RXRα heterodimer (Homo sapiens (Human), UniProt P19793); test: Nurr1:RXRα-dependent luciferase reporter (DR5-TK-Luc) transactivation assay; format: cell-based; conditions: SHSY-5Y, luciferase
Method: The in vitro transactivation assay determined the capacity of the compounds of the invention to activate the Nurr1:RXR heterodimers. Naive SHSY-5Y cells were transiently co-transfected, using Lipofectamine 2000 (Invitrogen), with a plasmid expressing the human receptor Nurr1, a plasmid expressing the RXR human receptor (RXRα or RXRγ receptor) and a reporter plasmid DR5-TK-Luc. […] After incubation overnight, the expression of luciferase was measured (FIG. 1A).

[2] = target: Nurr1GAL4:RXRαVP16 heterodimer chimeras (Homo sapiens (Human), UniProt P19793); test: GAL4/VP16 chimera specificity luciferase assay in SHSY-5Y; format: cell-based; conditions: GAL4-responsive luciferase reporter
Method: (§1) Compound 3 specifically activates Nurr1:RXRα heterodimers over other RXR-containing transcription co-activator complexes. Specificity assays fusing DNA sequences of the gal4 DNA binding domain to the nuclear receptor Ligand-Binding-Domain (LDB) and to vp16 were performed as follows: Human SHSY-5Y cells were cotransfected with 20 ng of MH100-tk -luciferase, 10 ng of CMX-bgal, 20 ng of CMX-GAL4-RXRα-LBD and 20 ng of CMX-VP16-NR-LBD, where NR stands for either Nurr1, VDR, PPARγ. CMX-VP16-VDR-LBD and CMX-VP16-PPARγ-LBD were kindly provided by Dr Makishima ([…]). CMX-VP16-Nurr1-LBD was produced by cloning the Nurr1 LBD in the CMX-VP16 vector using KpnI. More specifically, Nurr1-LBD was isolated by PCR from a vector containing the Nurr1 cDNA using a set of primers flanking the Nurr1 LBD sequence and carrying at both sides the KpnI restriction sites, namely Nurr1 Forward […] (SEQ ID NO: 1) and Nurr1 Reverse […] (SEQ ID NO: 2). To exclude the possibility that compound 3 might transactivate RXRγ:Nurr1 heterodimers, CMX-GAL4-RXRγ-LBD was constructed by cloning the RXRγ LBD that was isolated by PCR from a vector containing the RXRγ cDNA (RIKEN, Tokyo, Japan) using the following Forward and Reverse primers carrying KpnI and NheI restriction sites, respectively, namely RXRγ Forward […] (SEQ ID NO: 3) and RXRγ LBD Reverse […] (SEQ ID NO: 4). 17 hours after transfection the compound was added to the medium at the corresponding concentrations and left for another 12 hours. Then the cells were assayed for luciferase activity normalized to galactosidase activity.
(§2) To test off-target effects of compound 3 on complexes aside from Nurr1:RXRα heterodimers, we fused the ligand binding domains of Nurr1, RXRα and a variety of related nuclear receptors to GAL4 DNA-binding domain to create chimeric proteins, while the ligand-binding domain of RXRα was also fused with VP16. These molecular chimeras were co-transfected in pairs with the RXRα:VP16 along with a GAL4-responsive luciferase reporter in SHSY-5Y, which were stimulated with compound 3. […] The above experiments indicate the high degree of selectivity of compound 3 and point to its neuroprotective potential.

[3] = target: RXRαGAL4 homodimer chimeras (Homo sapiens (Human), UniProt P19793); test: as above; format: cell-based; conditions: GAL4-responsive luciferase reporter
Method: as §1, §2

[4] = target: RXRαVP16 heterodimer chimeras with PPARγGAL4 (Homo sapiens (Human), UniProt P19793); test: as above; format: cell-based; conditions: GAL4-responsive luciferase reporter
Method: as §1, §2

[5] = target: RXRαVP16 heterodimer chimeras with RXRγGAL4 (Homo sapiens (Human), UniProt P19793); test: as above; format: cell-based; conditions: GAL4-responsive luciferase reporter
Method: as §1, §2

[6] = target: RXRαVP16 heterodimer chimeras with VDRGAL4 (Homo sapiens (Human), UniProt P19793); test: as above; format: cell-based; conditions: GAL4-responsive luciferase reporter
Method: as §1, §2

[7] = tested on: C57/BL6 mice; test: Porsolt forced swim test after chronic mild stress; format: in vivo, mouse; conditions: CMS mice, 2×10 mg/kg IP spaced 2 hours apart, 4 hours after last injection
Method: The chronic mild stress (CMS) procedure was applied semi randomly to each mouse and consisted of a variety of unpredictable mild environmental, social and physical stressors, including confinement in a small tube (1 hours), an empty cage without sawdust (15 hours), water and food deprivation (15 hours), food restriction (approximately 50 mg of food pellets, 3 hours), cage tilted at 45° (1-3 hours), damp sawdust (approximately 200 ml of water per 100 g of sawdust, 3 hours), paired housing in damp sawdust (18 hours), reversal of the light/dark cycle, 2-hour light/dark succession every 30 minutes, as well as light (15-17 hours) and dark (4-6 hours). Compound 3 (2×10 mg/kg spaced 2 hours apart) or vehicle control (Ethanol:PG:Saline, 10:30:60), was administered IP to mice. 4 hours after the last injection, mice were evaluated in the Porsolt forced swim test. […] Recorded behaviors for “floating” (the mouse is completely still in the water, except for isolated movements to right itself) and “swimming” (movement of all four legs with body aligned horizontally in the water) were measured (in seconds) for each mouse.

[8] = tested on: AAV-ASYN injected mice; test: Neuroprotection in the AAV-ASYN mouse model; format: in vivo; conditions: 10 mg/kg every 12 h for 2 weeks, vs vehicle
Method: Because the predictive validity of toxin-based mouse PD models for neuroprotection in humans is questionable, we proceeded to test the effect of compound 3 in a mouse model, where AAV viruses overexpressing wt alpha-synuclein (AAV-ASYN) under the chicken beta-actin promoter were unilaterally injected, combined with contralateral injections of (AAV-GFP). The same compound 3 (10 mg/kg every 12 h for 2 weeks) or vehicle treatment regimen was followed as in the toxin models.

[9] = tested on: GCH1; test: Expression of DA biosynthesis genes in SHSY-5Y by qPCR; format: cell-based, human; conditions: 12.5 μM, vs vehicle
Description: (§3) FIGS. 72A-72R show the ability of compound 3 to induce the expression of genes involved in dopamine biosynthesis as well as the neuroprotective effects of compound 3 in cell lines and patient iPCs-derived dopaminergic neurons. […] FIGS. 72F, 72G, 72H, and 72I show representative confocal microscopy images of the compound 3-treated primary rat cortical neurons. […] FIG. 72M-72R show the effects of compound 3 on PD patient iPS cell-derived dopaminergic neurons with the LRRK2-G2019S mutation or corrected mutation (GC). Compound 3 treatment rescues neurite length (M, expressed in […]), number (N) and branching (O) phenotypes. Representative images show staining with TuJ, TH and DAPI (FIGS. 72P, 72Q, and 72R).
(§4) Nurr1 regulates the transcription of DA biosynthesis genes (Kim et al. J. Neurochem. 85:622-634, 2003 and Gil et al. J Neurochem 101:142-150, 2007); however, whether this process is mediated by Nurr1:RXRα heterodimers is unknown.

[10] = tested on: TH; test: as above; format: cell-based, human; conditions: 12.5 μM, vs vehicle
Description: as §3, §4

[11] = tested on: aromatic L-amino acid decarboxylase (AADC); test: as above; format: cell-based, human; conditions: 12.5 μM, vs vehicle
Description: as §3, §4

Nurr1:RXRα heterodimer, sequence (P19793 whole entry, the tested form may be a part): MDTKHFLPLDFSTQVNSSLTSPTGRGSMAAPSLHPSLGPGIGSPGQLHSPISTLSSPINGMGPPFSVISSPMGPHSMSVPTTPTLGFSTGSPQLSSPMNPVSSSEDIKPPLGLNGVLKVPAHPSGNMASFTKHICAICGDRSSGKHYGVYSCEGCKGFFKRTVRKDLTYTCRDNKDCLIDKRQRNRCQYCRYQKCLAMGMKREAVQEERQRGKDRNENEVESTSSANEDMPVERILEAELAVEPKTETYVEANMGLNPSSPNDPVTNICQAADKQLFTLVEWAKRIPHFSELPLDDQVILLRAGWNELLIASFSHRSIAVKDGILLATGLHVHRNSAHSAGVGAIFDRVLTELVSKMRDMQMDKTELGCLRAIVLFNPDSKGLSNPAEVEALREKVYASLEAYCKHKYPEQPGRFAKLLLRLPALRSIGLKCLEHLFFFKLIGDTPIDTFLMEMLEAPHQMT
Nurr1:RXRα heterodimer, sequence (P43354 whole entry partner, the tested form may be a part): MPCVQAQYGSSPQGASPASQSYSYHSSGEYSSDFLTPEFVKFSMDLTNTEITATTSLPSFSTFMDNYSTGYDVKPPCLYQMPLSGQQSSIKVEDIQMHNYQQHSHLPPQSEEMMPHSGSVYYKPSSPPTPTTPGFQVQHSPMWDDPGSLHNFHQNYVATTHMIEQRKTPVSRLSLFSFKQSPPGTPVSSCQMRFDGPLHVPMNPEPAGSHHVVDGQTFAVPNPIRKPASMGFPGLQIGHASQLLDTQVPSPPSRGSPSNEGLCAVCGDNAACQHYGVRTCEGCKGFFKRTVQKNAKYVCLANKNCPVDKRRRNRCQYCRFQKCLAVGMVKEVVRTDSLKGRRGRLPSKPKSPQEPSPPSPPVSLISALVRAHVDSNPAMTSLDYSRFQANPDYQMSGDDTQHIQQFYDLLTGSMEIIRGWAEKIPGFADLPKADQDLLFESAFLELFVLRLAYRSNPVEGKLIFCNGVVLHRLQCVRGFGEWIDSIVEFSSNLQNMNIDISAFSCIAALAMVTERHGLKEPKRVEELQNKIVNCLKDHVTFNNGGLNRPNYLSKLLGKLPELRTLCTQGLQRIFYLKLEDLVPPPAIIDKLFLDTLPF
RXRαVP16 heterodimer chimeras with PPARγGAL4, sequence (P19793 whole entry, looked up, change not shown, the tested form may be a part): as the sequence (P19793 whole entry, the tested form may be a part) above
RXRαVP16 heterodimer chimeras with PPARγGAL4, sequence (P37231 whole entry partner, looked up, the tested form may be a part): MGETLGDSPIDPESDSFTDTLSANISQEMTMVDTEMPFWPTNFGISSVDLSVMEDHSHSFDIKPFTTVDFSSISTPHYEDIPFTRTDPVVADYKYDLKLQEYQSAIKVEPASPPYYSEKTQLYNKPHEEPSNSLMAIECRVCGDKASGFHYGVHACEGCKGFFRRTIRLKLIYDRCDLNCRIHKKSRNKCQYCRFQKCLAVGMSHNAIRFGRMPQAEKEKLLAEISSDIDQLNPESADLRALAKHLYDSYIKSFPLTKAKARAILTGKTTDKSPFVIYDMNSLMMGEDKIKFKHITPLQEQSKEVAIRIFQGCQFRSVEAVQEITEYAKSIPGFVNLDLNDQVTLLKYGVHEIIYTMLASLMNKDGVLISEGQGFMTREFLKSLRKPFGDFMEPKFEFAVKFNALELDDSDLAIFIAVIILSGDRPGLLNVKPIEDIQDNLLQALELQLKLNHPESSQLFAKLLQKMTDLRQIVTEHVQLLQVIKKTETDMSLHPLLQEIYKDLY
RXRαVP16 heterodimer chimeras with VDRGAL4, sequence (P19793 whole entry, looked up, change not shown, the tested form may be a part): as the sequence (P19793 whole entry, the tested form may be a part) above
RXRαVP16 heterodimer chimeras with VDRGAL4, sequence (P11473 whole entry partner, looked up, the tested form may be a part): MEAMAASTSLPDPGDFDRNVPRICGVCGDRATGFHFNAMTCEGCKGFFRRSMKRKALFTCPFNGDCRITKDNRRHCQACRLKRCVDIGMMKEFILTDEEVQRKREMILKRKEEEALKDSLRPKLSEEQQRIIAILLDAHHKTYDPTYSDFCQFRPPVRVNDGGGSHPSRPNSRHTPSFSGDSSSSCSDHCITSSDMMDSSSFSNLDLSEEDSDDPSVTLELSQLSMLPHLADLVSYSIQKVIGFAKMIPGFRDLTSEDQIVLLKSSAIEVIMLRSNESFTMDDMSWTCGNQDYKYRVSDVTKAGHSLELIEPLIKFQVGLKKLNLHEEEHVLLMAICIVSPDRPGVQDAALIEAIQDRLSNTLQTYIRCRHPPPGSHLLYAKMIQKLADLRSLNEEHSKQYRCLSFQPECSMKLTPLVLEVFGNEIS
RXRαVP16 heterodimer chimeras with RXRγGAL4, sequence (P19793 whole entry, looked up, change not shown, the tested form may be a part): as the sequence (P19793 whole entry, the tested form may be a part) above
RXRαVP16 heterodimer chimeras with RXRγGAL4, sequence (P48443 whole entry partner, looked up, the tested form may be a part): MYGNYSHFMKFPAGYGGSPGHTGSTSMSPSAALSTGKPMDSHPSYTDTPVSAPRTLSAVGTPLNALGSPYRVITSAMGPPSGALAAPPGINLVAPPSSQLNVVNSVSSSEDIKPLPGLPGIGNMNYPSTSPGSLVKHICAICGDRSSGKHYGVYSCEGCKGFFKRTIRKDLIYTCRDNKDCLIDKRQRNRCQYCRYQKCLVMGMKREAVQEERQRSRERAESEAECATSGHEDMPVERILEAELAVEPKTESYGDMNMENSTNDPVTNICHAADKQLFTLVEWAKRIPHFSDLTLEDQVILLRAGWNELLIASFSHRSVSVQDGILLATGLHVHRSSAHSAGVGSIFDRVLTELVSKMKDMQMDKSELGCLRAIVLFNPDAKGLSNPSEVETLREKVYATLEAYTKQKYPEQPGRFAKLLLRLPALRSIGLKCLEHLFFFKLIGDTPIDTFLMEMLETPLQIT
RXRαGAL4 homodimer chimeras, sequence (P19793 whole entry, looked up, change not shown, the tested form may be a part): as the sequence (P19793 whole entry, the tested form may be a part) above
RXRαGAL4 homodimer chimeras, sequence (P19793 whole entry, looked up, change not shown, the tested form may be a part): as the sequence (P19793 whole entry, the tested form may be a part) above
Nurr1GAL4:RXRαVP16 heterodimer chimeras, sequence (P19793 whole entry, looked up, change not shown, the tested form may be a part): as the sequence (P19793 whole entry, the tested form may be a part) above
Nurr1GAL4:RXRαVP16 heterodimer chimeras, sequence (P43354 whole entry partner, looked up, the tested form may be a part): as the sequence (P43354 whole entry partner, the tested form may be a part) above

C=CCc1c(N(C)c2ccc(C(=O)O)cc2)nc(-c2ccccc2)nc1C(F)(F)F [Example 3, 4-((5-allyl-2-phenyl-6-(trifluoromethyl)pyrimidin-4-yl)(methyl)amino)benzoic acid]
activation of Nurr1:RXRα heterodimers [1]: activated | activation of Nurr1GAL4:RXRαVP16 heterodimer chimeras [2]: strongly activated | activation of RXRαGAL4 homodimer chimeras [3]: failed to activate | activation of PPARγGAL4:RXRαVP16 chimeras [4]: failed to activate | activation of RXRγGAL4:RXRαVP16 chimeras [5]: failed to activate | activation of VDRGAL4:RXRαVP16 chimeras [6]: failed to activate | decrease of floating time [7]: 61.48% | increase of swimming time [7]: 31.7% | number of NeuN(+) midbrain neurons [8]: increased | increase of TH(+) midbrain neurons ([8]; listed as Compound 3): 48% | increase of TH(+) midbrain neurons ([8]; listed as compound 3): about 47% | increase of GCH1 expression [9]: about 42% | increase of TH expression [10]: about 90% | increase of AADC expression [11]: about 70%
